{"source": "patent US5196415A", "about": "“5-aminocarbonyl-5H-dibenzo[a.d]cyclohepten-5,10-imines for treatment of epilepsy and cocaine addiction” (The United States of America as represented by the …, priority 1992, dated 1993)", "key": {"[1]": {"conditions": "in words; cited from earlier work"}, "[2]": {"tested_on": "phencyclidine binding sites in the central nervous system", "conditions": "in words; cited from earlier work"}, "[3]": {"conditions": "compared to 17% who received a placebo; cited from earlier work"}, "[4]": {"conditions": "in words; cited from earlier work", "remark": "listed apart in the source"}, "[5]": {"test": "protection against maximal electroshock induced seizures (corneal electroshock, tonic-extensor component)", "assay_type": "in vivo, male CF-1 type mice", "conditions": "Mus musculus, ip, 0.25 h; mice, intraperitoneal, saline carrier, 15 min before electroshock (30 mA, 50 Hz, 0.1 s)", "protocol": "(§1) Compound 1 was administered intraperotoneally to male CF-1 type mice (20-25 g) with a saline solution carrier. The dose effect behavior was determined by the administration of six different doses of each compound, treating eight mice at each dose. After a period of fifteen minutes, the mice were subjected to corneal application of electroshock (30 mA at 50 Hz for 0.1 s). The ED50 and the 95% confidence intervals of drug which eliminated the tonic-extensor component of the convulsion in 50% of the animals was calculated by the method of Litchfield and Wilcoxon (J. Pharmacol. Exp. Ther. 1949, 96, 99). Drug induced motor toxicity was examined using the inverted screen test which measures the ability of mice to hold onto a screen which has been turned vertical. Control animals will be able to hold on."}, "[6]": {"test": "drug induced motor toxicity, inverted screen test", "conditions": "mouse, in vivo, ip, mice", "protocol": "as §1"}}}
{"smiles": "CC12NC(Cc3ccccc31)c1ccccc12", "note": "(single isomer, unassigned) [MK-801]", "values": [{"measurement": "sedative side effects", "setting": "[1]", "value": "essentially free of the usual sedative side effects"}, {"measurement": "affinity for phencyclidine binding sites", "setting": "[2]", "value": "high affinity"}]}
{"smiles": "NC(=O)N1c2ccccc2C=Cc2ccccc21", "note": "[Carbamazepine, 5-carbamyl-5H-dibenzo[b,f]azepine]", "values": [{"measurement": "addicts taking the medication able to abstain from cocaine for a prescribed period", "setting": "[3]", "value": 59, "unit": "%"}, {"measurement": "acute and motor toxicity", "setting": "[4]", "value": "low acute and motor toxicity"}, {"measurement": "anticonvulsant activity", "setting": "[4]", "value": "good activity"}, {"measurement": "bioavailability", "setting": "[4]", "value": "low bioavailability"}, {"measurement": "bone marrow suppression", "setting": "[4]", "value": "implicated in bone marrow suppression"}, {"measurement": "toxic overdose reported", "setting": "[4]", "value": "only one case of toxic overdose has been reported"}]}
{"smiles": "NC(=O)C12NC(Cc3ccccc31)c1ccccc12", "note": "(centres unmarked) [Compound 1, 5-Aminocarbonyl-10,11-dihydro-5H-dibenzo[a,d]cyclohepten-5,10-imine]", "values": [{"measurement": "ED50", "setting": "[5]", "value": 8.9, "unit": "mg/kg"}, {"measurement": "TD50", "setting": "[6]; intraperitoneal, inverted screen test", "value": "50 to 55", "unit": "mg/kg"}, {"measurement": "selectivity ratio", "setting": "[6]; motor toxicity TD50 versus maximal electroshock ED50, read-out: therapeutic index (TI)", "value": "5.6 to 6.2"}]}
